Assay results: patent US20200325239A1, “Modulation of Aminopeptidase N/CD13 and Rheumatoid Arthritis” (THE REGENTS OF THE UNIVERSITY OF MICHIGAN, priority 2016, published 2020)

Assays:
Assay type in all cases: cell-based, human
RA FLS [1] = test: ELISA for the secretion of CD13 from RA FLS incubated with TIMPs; details: 0.6 μg/ml, 48 hours, FLS from 3 RA patients
Method: To determine the role of tissue inhibitors of metalloproteinases (TIMPs) in the secretion of CD13, RA FLS (10 aliquots of 10^5, or 10^6, cells) were plated in 6-well plates in RPMI with 10% FBS. When RA FLS became 85% confluent, media was switched to RPMI containing 0.1% FBS. RA FLS were incubated with TIMP-1, TIMP-2 or both for 48 hours. ELISA was performed to determine the levels of soluble CD13 in the conditioned media. Conditioned media (100 μl/well) was added to 96-well plates (Thermo Scientific, USA) for 2 hours at room temperature. After blocking, anti-CD13 antibody, WM15, (10 μg/ml, BioLegend) was added for 2 hours at 37° C. Anti-mouse IgG HRP-linked antibody (1:1000) was added for 1 hour. After adding the TMB substrate solution (BD Biosciences) and stop solution (2N H2SO4), the optical density (OD) was measured at 450 nm by a microplate reader (BIO-TEK, USA). We used FLS from three different RA patients. Both inhibitors were used at 0.6 μg/ml. These concentrations are recommended by the manufacture to inhibit matrix metalloproteinases (MMPs).

CD13 mRNA = test: Regulation of CD13 mRNA in RA FLS by cytokines (qRT-PCR); details: time course 0 to 72 hours; for CD13 mRNA in RA FLS, ratio to untreated FLS (in words): IFNγ 1000 U/ml, TNFα 10 ng/ml, IL-17 10 ng/ml
Method: FIG. 4. […] FLS were stimulated over a time course of 0-72 hours with IFNγ (1000 U/ml), TNFα (10 ng/ml), or IL-17 (10 ng/ml). Cells were harvested and processed for either mRNA (A), surface expression (B), total cell lysate CD13 (C), or total CD13 in supernatant (D). mRNA was measured by qRT-PCR. CD13 was measured on the surface with anti-CD13 (1D7) and flow cytometry. Cell lysate and supernatant CD13 concentrations were measured by CD13 ELISA. Gating was done to isolate the major cell population and exclude debris and dead cells. Data is expressed as a ratio to unstimulated FLS at the same time point in either ΔΔCt normalized to GAPD (mRNA), mean fluorescent intensity corrected for background florescence with MsIg staining (surface), or CD13 concentration in lysate or supernatant. A n=3 B-D n=1 *p≤0.05.
All procedures involving specimens obtained from human subjects were performed under a protocol approved by the University of Michigan Institutional Review Board. Fibroblast-like synoviocytes (FLS) were cultured from human synovial tissue obtained at arthroplasty or synovectomy from RA joints by digestion with 1% collagenase and separation through a […] (16). FLS were uniformly positive for the FLS marker Cadherin-11. The diagnosis of RA required at least four of the seven 1987 American College of Rheumatology criteria (17). FLS were maintained in Connaught Medical Research Laboratory ([…]) medium (20% fetal bovine serum (FBS), 2 mM L-glutamine, and 1% penicillin/streptomycin), and were used between passages 4 and 10. To avoid the confounding effect of serum CD13, cultures were moved to serum-free Dulbecco's Modified Eagle's medium/F-12 with Peprogrow serum replacement (Peprotech, Rocky Hill, N.J.) before harvesting. Some cultures were treated with protease inhibitors for 48 hours in serum-free medium: pepstatin A (Sigma-Aldrich, St. Louis, Mo.), aprotinin (Sigma-Aldrich, St. Louis, Mo.), leupeptin (Sigma-Aldrich, St. Louis, Mo.), GM6001 InSolution (EMD Millipore, Darmstadt, Germany), or E-64 (Thermo Scientific, Waltham, Mass.). Other cultures were treated with cytokines: recombinant human interferon-γ (rhIFNγ, […]), recombinant human tumor necrosis factor-α (rhTNFα, 10 ng/ml), or recombinant human interleukin-17 (rhIL-17,10 ng/ml) (Peprotech, Rocky Hill, N.J.) for 0, 0.5, 1, 2, 6, 8, 12, 24, 48, or 72 hours in serum-free medium.
mRNA was isolated from FLS (3 wells of a 6-well plate) using the RNAeasy Kit and Qiacube (Qiagen, Venlo, Netherlands). cDNA was prepared using a High Capacity cDNA Kit (Life Technologies, Carlsbad, Calif.). Quantitative reverse transcription polymerase chain reaction (qRT-PCR) was done using TaqMan Gene Expression Assays on a 7500 Real Time PCR System (Life Technologies, Carlsbad, Calif.).
CD13 is present at much higher levels in RA synovial fluid compared to OA. Cultured RA and OA FLS, however, expressed similar amounts of CD13 (10). One possible explanation for this observation is that the pro-inflammatory cytokines in the RA joint could contribute to upregulation of CD13 production by FLS. Cultured RA FLS were treated with IFNγ, TNFα, or IL-17 over a time course from 0 to 72 hours. […] Data shown are a ratio of cytokine-treated FLS CD13 mRNA to untreated FLS CD13 mRNA at the same time point.

RA FLS [2] = test: FLS growth assay (Essen IncuCyte, percent confluence); details: antibodies 25 or 50 ng/ml, actinonin 10 μM, bestatin 50 μM, primarily between 24 hours and 120 hours
Method: (§1) FIG. 5. […] FLS were seeded on 96-well plates overnight. An Essen Incucyte system was used for both growth (A) and migration (B) assays. Growth was calculated as the difference in percent confluence from time 0. Migration was measured in a scratch-wound assay using relative wound density. All data are expressed as a ratio to untreated FLS of the same cell line. mean±SEM n≥4 (*p≤0.05).
(§2) RA FLS were seeded on Essen Image Lock 96-well plates (Essen Bioscience, Ann Arbor, Mich.) overnight at either 3,000 cells/well for growth or 30,000 cells/well for migration. For growth, the 20% FBS CMRL media was removed and cells were washed 1× with PBS. 100 μl of medium alone (control) or medium containing anti-CD3 (25 or 50 ng/ml, OKT3, used as a non-reactive isotype control antibody in this experiment), anti-CD13 1D7 or WM15 (Biolegend, San Diego, Calif.) (25 or 50 ng/ml), or CD13 chemical inhibitors actinonin (Sigma-Aldrich, St. Louis, Mo.) or bestatin (Sigma-Aldrich, St. Louis, Mo.) (10 μM and 50 μM, respectively) was added to the wells. Images and confluence data were collected using an Essen IncuCyte (Essen Bioscience, Ann Arbor, Mich.). For the scratch-wound migration assay, wounds were made via the Essen scratch-wound tool in the seeded 96-well plate. Plates were then washed 2× with PBS and medium was added similar to the growth plates. Data were collected and the confluence or relative wound density calculated by the Essen IncuCyte.

RA FLS [3] = test: FLS scratch-wound migration assay (relative wound density); details: antibodies 25 or 50 ng/ml; actinonin 10 μM, bestatin 50 μM; primarily from 36 hours to 72 hours
Method: as §1
as §2, with “Plates were then washed 2× with PBS and medium was added similar to the growth plates.” left out

RA FLS [4] = test: CD13 shedding from FLS cultures with protease inhibitors (CD13 ELISA of supernatant and cell lysate); details: 48 hours
Method: Fibroblast-like synoviocytes (FLS) were cultured from human synovial tissue obtained at arthroplasty or synovectomy from RA joints by digestion with 1% collagenase and separation through a 7004 cell strainer (16). […] FLS were maintained in Connaught Medical Research Laboratory (CARL) medium (20% fetal bovine serum (FBS), 2 mM L-glutamine, and 1% penicillin/streptomycin), and were used between passages 4 and 10. To avoid the confounding effect of serum CD13, cultures were moved to serum-free Dulbecco's Modified Eagle's medium/F-12 with Peprogrow serum replacement (Peprotech, Rocky Hill, N.J.) before harvesting. Some cultures were treated with protease inhibitors for 48 hours in serum-free medium: pepstatin A (Sigma-Aldrich, St. Louis, Mo.), aprotinin (Sigma-Aldrich, St. Louis, Mo.), leupeptin (Sigma-Aldrich, St. Louis, Mo.), GM6001 InSolution (EMD Millipore, Darmstadt, Germany), or E-64 (Thermo Scientific, Waltham, Mass.).
Cells were lysed in cell lysis buffer (10% NP-40, 10% PMSF, 1% Iodoacetamide, and 0.1% E-64 in TSA) for one hour on ice and spun to remove debris. FLS culture supernatants were concentrated by centrifugation through an Amicon Ultracel 30K filter (EMD Millipore, Darmstadt, Germany).
High-binding ELISA plates were coated with the anti-CD13 monoclonal antibody WM15 (Biolegend, San Diego, Calif.) in 0.1M carbonate buffer pH 9.5 overnight, and then blocked with 1× Animal Free Block (Vector Laboratories, Burlingame, Calif.) overnight. Samples were then applied to the plates either whole or diluted in block with 10 mM EDTA. A standard curve was prepared using recombinant human CD13 (R&D Systems, Minneapolis, Minn.) in block with 10 mM EDTA. 1D7 (i.e., 591.1D7.34, University of Michigan Hybridoma Core), an anti-CD13 monoclonal antibody that was recently described (10), was biotinylated (Biotin-XX Microscale Protein Labeling Kit, Life Technologies, Carlsbad, Calif.) and applied overnight (19). Streptavidin-HRP (Biolegend, San Diego, Calif.) was then added. Between steps, plates were washed with PBS plus 0.05% Tween. The plates were visualized with TMB substrate (BD Biosciences, San Jose, Calif.), stopped with 2M H2SO4, and analyzed on a colorimetric plate reader.
To test this mechanism, various protease inhibitors were added to FLS cultures, including: pepstatin A (aspartic), aprotinin (serine), leupeptin (serine/cysteine), GM6001 (metalloproteinase), and E-64 (cysteine). […] All inhibitors were used at established working concentrations.

FLS = test: CD13 release and cellular CD13 after siRNA knockdown with or without GM6001 (CD13 ELISA); details: 25 μM GM6001, 48 hours
Method: FLS were grown to confluence, then transfected with siRNA using an Amaxa nucleofector kit. Cells were grown to 75% confluence, then switched to serum-free growth media (Peprogrow) supplemented with 1 ng/ml IL-1 and 10 ng/ml TNFα for 48 hours with or without 25 μM GM6001.
High-binding ELISA plates were coated with the anti-CD13 monoclonal antibody WM15 (Biolegend, San Diego, Calif.) in 0.1M carbonate buffer pH 9.5 overnight, and then blocked with 1× Animal Free Block (Vector Laboratories, Burlingame, Calif.) overnight. Samples were then applied to the plates either whole or diluted in block with 10 mM EDTA. A standard curve was prepared using recombinant human CD13 (R&D Systems, Minneapolis, Minn.) in block with 10 mM EDTA. […] The plates were visualized with TMB substrate (BD Biosciences, San Jose, Calif.), stopped with 2M H2SO4, and analyzed on a colorimetric plate reader.
FLS were transfected by electroporation using an Amaxa Nucleofector and the nucleofector kit for dermal fibroblasts (NHDF, Lonza, Basel, Switzerland). […] Transfection of GFP control plasmid was measured by fluorescent microscopy (EVOSfl, AMG, Mill Creek, Wash.) and flow cytometry (BD Biosciences FACSCalibur, San Jose, Calif.). Knockdown efficiency was measured by qRT-PCR of MMP14 mRNA at the time of harvest for CD13 measurements. […]

Compound: tissue inhibitor of metalloproteinase 1 [TIMP-1]
- CD13 secretion in conditioned media (OD, ELISA) (RA FLS [1]): decrease was not observed

Compound: recombinant human interferon-γ [IFNγ]
- CD13 mRNA in RA FLS, ratio to untreated FLS (in words) (CD13 mRNA): upregulated
- time of peak CD13 mRNA expression (CD13 mRNA): around 48 hours

Compound: recombinant human interleukin-17 [IL-17]
- CD13 mRNA in RA FLS, ratio to untreated FLS (in words) (CD13 mRNA): upregulated
- time of peak CD13 mRNA expression (CD13 mRNA): around 48 hours

Compound: CCCCC[C@H](CC(=O)NO)C(=O)N[C@H](C(=O)N1CCC[C@H]1CO)C(C)C [actinonin]
- RA FLS cell growth (change in confluence, ratio to untreated FLS) (RA FLS [2]): strongest inhibitor of cell proliferation
- RA FLS cell growth (change in confluence, ratio to untreated FLS) (RA FLS [2]; listed as Actinonin): significant slowing of cell growth
- RA FLS migration in wound healing assay (relative wound density, ratio to untreated) (RA FLS [3]): significant decrease

Compound: recombinant human tumor necrosis factor-α [TNFα]
- CD13 mRNA in RA FLS, ratio to untreated FLS (in words) (CD13 mRNA): upregulated
- time of peak CD13 mRNA expression (CD13 mRNA): around 48 hours

Compound: CC(C)C[C@H](NC(=O)[C@@H](O)[C@H](N)Cc1ccccc1)C(=O)O [Bestatin, bestatin]
- RA FLS cell growth (change in confluence, ratio to untreated FLS) (RA FLS [2]): significant slowing of cell growth
- RA FLS migration in wound healing assay (relative wound density, ratio to untreated) (RA FLS [3]): not found to inhibit FLS migration

Compound: CNC(=O)[C@H](Cc1c[nH]c2ccccc12)NC(=O)[C@@H](CC(=O)NO)CC(C)C [GM6001]
- CD13 in FLS cell lysates (change, in words) (RA FLS [4]; FLS cultures, serum-free media with protease inhibitor): No significant difference
- reduction of CD13 protein found in the supernatant (RA FLS [4]; FLS cultures, serum-free media, GM6001 25 μM, CD13 ELISA): 93.62±4.78%
- block of CD13 release from FLS (in words) (RA FLS [4]; protease inhibitors at established working concentrations): found to block CD13 release
- CD13 in lysates of GM6001-treated cells (FLS): significantly increased
- release of CD13 into the culture supernatant (in words) (FLS; serum-free media with 1 ng/ml IL-1 and 10 ng/ml TNFα): prevented the release of CD13

Compound: CC(=O)N[C@@H](CC(C)C)C(=O)N[C@@H](CC(C)C)C(=O)N[C@H](C=O)CCCNC(=N)N [Leupeptin, leupeptin]
- increase in CD13 released (RA FLS [4]; FLS cultures, serum-free media, Leupeptin 10 μM, supernatant): 48.40±14.29%

Compound: aprotinin
- increase in CD13 expression in FLS cell lysates (RA FLS [4]; Aprotinin 100 nM): 22.17±6.18%

Compound: tissue inhibitor of metalloproteinase 2 [TIMP-2]
- CD13 secretion in conditioned media (OD, ELISA) (RA FLS [1]): significant decrease
